Experimental data as given in patent publication US8044100B2, “Methods and compositions for treating amyloid-related diseases” (Bellus Health Inc., priority 2004, dated 2011).

What was measured:
[1] = test system: amyloid plaques in the brains of TgCRND8 mice; experiment: ThioS histology of brain sections of TgCRND8 mice: number of plaques and area occupied; assay type: in vivo, mouse; conditions: for Change in Plaque Area / Change in Plaque Number: 16 wks, ThioS
Method: For the ThioS studies, the plaques in the brains of the mice were quantified as follows. Mice were transcardially perfused with saline solution. Brains were dissected out and separated in 2 hemispheres. The left hemisphere was immersed in freshly-prepared 4% paraformaldehyde for 3 hrs at 4° C., then transfered into 30% sucrose at 4° C. When cryoprotection was achieved (24-48 hours), brains were frozen in isopentane at −45° C. and subsequently stored at −80° C. until sectioning. Coronal 40 μm-thick sections were performed, and stained with thioflavin S (1% solution in water) for 8 min. After differentiation of the thioflavin S staining, sections were counterstained with hematoxylin for 5 minutes. Two sets of pictures were captured simultaneously. A first set of pictures was captured under brightfield illumination to obtain morphological details of the section; a second set of pictures was captured under a green, specific, fluorescent filter (fluorescein filter, Ex 495 nm, Em 525 nm). Image analysis to quantify the number of plaques and the area occupied by these plaques was performed using Image Pro Plus software (Media Cybernetics, MD, USA).
Increases in the areas and numbers of plaques are indicated using “+” symbols, while decreases in the areas and numbers of the plaques are indicated using “−” symbols.
Specifically, increases in the areas and numbers of plaques (relative to vehicle treated control) of 10 to 19.99% are scored as “+”. Decreases in the areas and numbers of plaques of 10 to 19.99% are scored as “−”. Additionally, changes of 9.99% or less in either direction are scored as “0”.

[2] = test system: Aβ peptides (Aβ40, Aβ42) in the plasma and brain of TgCRND8 mice; experiment: Long term treatment (8 or 16 weeks) in TgCRND8 mice: Aβ levels in plasma and brain; assay type: in vivo, mouse; conditions: for Brain Abeta40 insoluble / Brain Abeta40 soluble / Brain Abeta42 insoluble / Brain Abeta42 soluble / Plasma Abeta40 / Plasma Abeta42: BX subcutaneous, BW and BZ oral
Method: The long-term therapeutic effects of compounds of the present invention on cerebral amyloid deposition and β-amyloid (Aβ) levels in the plasma and in the brains of transgenic mice, TgCRND8, expressing the human amyloid precursor protein (hAPP) was studied. These compounds were administered over an 8 or 16 week period at the end of which the levels of Aβ peptides in the plasma and brain of TgCRND8 animals were determined. The goal of this study was to evaluate the efficacy of the compounds at modulating the progression of the amyloidogenic process in the brain and in the plasma of a transgenic mouse model of Alzheimer's disease (AD)
The mice used in the study consisted of animals bearing one copy of the hAPP gene (+/−) from the 2nd and 3rd generation progenies (N2 and N3) derived from backcrosses from TgCRND8.FVB(N2)AJ(N3) with B6AF1/J hybrid animals. • N1=TgCRND8.FVB(N2)AJ(N3)×B6AF1/J • N2=TgCRND8.FVB(N2)AJ(N3).B6AF1/J(N1)×B6AF1/J • N3=TgCRND8.FVB(N2)AJ(N3).B6AF1/J(N2)×B6AF1/J
The following abbreviations are used to designate these animals in the present study: TgCRND8.B6AF1/J(N2); TgCRND8.B6AF1/J(N3). Male and female transgenic mice were given daily subcutaneous (compound BX) or oral (compounds BW and BZ) administrations of the appropriate compounds for 8 or 16 weeks.
Baseline animals consisted of 9±1 week old naive TgCRND8.B6AF1/J animals from the 2nd and 3rd generations. These mice were used to determine the extent of cerebral amyloid deposits and Aβ levels in the plasma and brain of naive transgenic animals at the initiation of treatment.
Starting at 9 weeks of age (+1 week) animals received daily administration of their respective treatment for a period of 8 or 16 weeks, at a dose of 30 or 100 mg/kg at 10 ml/kg. The route of administration was subcutaneous for water-soluble compounds (Compound BX) and oral for compounds solubilized in methylcellulose 1% (MC 1%) (Compounds BW and BZ). At the end of the treatment periods, plasma and perfused brains were collected for quantification of Aβ levels.
Animal health was monitored, samples were collected and Aβ levels were measured as described above in the short term treatment study. Compounds were scored based on their ability to modulate levels of Aβ peptides in the plasma and the cerebral soluble/insoluble levels in the brain. Levels of Aβ observed in the plasma and brain of treated animals were compared to that of vehicle-treated (water) or methylcellulose-treated control groups and ranked according to the strength of the pharmacological effect. Increases in the levels of Aβ peptides are indicated using “+” symbols, while decreases in the levels of Aβ peptides are indicated using “−” symbols. The strongest effects are recorded as “+++” or “−−−” while the weakest are shown as “+” or “−”.
Specifically, increases in the levels of Aβ (relative to vehicle treated control) of 5 to 14% are scored as “+”; increases of 15 to 29% are scored as “++”; and increases of 30% or higher are scored as “+++”. Decreases in the levels of Aβ of 5 to 14% are scored as “−”; decreases of 15 to 29% are scored as “−−”; and decreases of 30% or more are scored as “−−−”. Additionally, changes of 4% or less in either direction are scored as “0”.

[3] = 30 mg/kg, ThioS staining of brain sections, preliminary

Compound	Change in Plaque Area ([1]; 30 mg/kg)	Change in Plaque Number ([1]; 30 mg/kg)	Change in Plaque Area ([1]; 100 mg/kg)	Change in Plaque Number ([1]; 100 mg/kg)	Brain Abeta40 insoluble ([2]; 30 mg/kg daily, 8 wks)	Brain Abeta40 soluble ([2]; 30 mg/kg daily, 8 wks)	Brain Abeta42 insoluble ([2]; 30 mg/kg daily, 8 wks)	Brain Abeta42 soluble ([2]; 30 mg/kg daily, 8 wks)	Plasma Abeta40 ([2]; 30 mg/kg daily, 8 wks)	Plasma Abeta42 ([2]; 30 mg/kg daily, 8 wks)	Brain Abeta40 insoluble ([2]; 30 mg/kg daily, 16 wks)	Brain Abeta40 soluble ([2]; 30 mg/kg daily, 16 wks)	Brain Abeta42 insoluble ([2]; 30 mg/kg daily, 16 wks)	Brain Abeta42 soluble ([2]; 30 mg/kg daily, 16 wks)	Plasma Abeta40 ([2]; 30 mg/kg daily, 16 wks)	Plasma Abeta42 ([2]; 30 mg/kg daily, 16 wks)	Brain Abeta40 insoluble ([2]; 100 mg/kg daily, 8 wks)	Brain Abeta40 soluble ([2]; 100 mg/kg daily, 8 wks)	Brain Abeta42 insoluble ([2]; 100 mg/kg daily, 8 wks)	Brain Abeta42 soluble ([2]; 100 mg/kg daily, 8 wks)	further results
CC(C)(C)NCCCS(=O)(=O)O [BX, 3-(t-butyl)amino-1-propanesulfonic acid]	− (Decreases in the areas and numbers of plaques of 10 to 19.99%)	− (Decreases in the areas and numbers of plaques of 10 to 19.99%)	+ (increases in the areas and numbers of plaques (relative to vehicle treated control) of 10 to 19.99%)	0 (changes of 9.99% or less in either direction)	−−− (decreases of 30% or more)	−−− (decreases of 30% or more)	−− (decreases of 15 to 29%)	−−− (decreases of 30% or more)	+ (increases in the levels of Aβ (relative to vehicle treated control) of 5 to 14%)	+ (increases in the levels of Aβ (relative to vehicle treated control) of 5 to 14%)	−−− (decreases of 30% or more)	−− (decreases of 15 to 29%)	− (Decreases in the levels of Aβ of 5 to 14%)	0 (changes of 4% or less in either direction)	− (Decreases in the levels of Aβ of 5 to 14%)	− (Decreases in the levels of Aβ of 5 to 14%)	++ (increases of 15 to 29%)	+ (increases in the levels of Aβ (relative to vehicle treated control) of 5 to 14%)	0 (changes of 4% or less in either direction)	+ (increases in the levels of Aβ (relative to vehicle treated control) of 5 to 14%)	area occupied by the plaques [1, 3]: decreased; number of plaques [1, 3]: decreased; Plasma Abeta40 ([2]; 100 mg/kg daily, 8 wks): ++ (increases of 15 to 29%); Plasma Abeta42 ([2]; 100 mg/kg daily, 8 wks): +++ (increases of 30% or higher); Brain Abeta40 insoluble ([2]; 100 mg/kg daily, 16 wks): −−− (decreases of 30% or more); Brain Abeta40 soluble ([2]; 100 mg/kg daily, 16 wks): − (Decreases in the levels of Aβ of 5 to 14%); Brain Abeta42 insoluble ([2]; 100 mg/kg daily, 16 wks): −− (decreases of 15 to 29%); Brain Abeta42 soluble ([2]; 100 mg/kg daily, 16 wks): 0 (changes of 4% or less in either direction); Plasma Abeta40 ([2]; 100 mg/kg daily, 16 wks): − (Decreases in the levels of Aβ of 5 to 14%); Plasma Abeta42 ([2]; 100 mg/kg daily, 16 wks): 0 (changes of 4% or less in either direction); amount of Aβ in the brain ([2]; at both 8 and 16 weeks): dramatic decrease
O=S(=O)(O)CCCNC12CC3CC(CC(C3)C1)C2 [BW]	0 (changes of 9.99% or less in either direction)	0 (changes of 9.99% or less in either direction)	0 (changes of 9.99% or less in either direction)	− (Decreases in the areas and numbers of plaques of 10 to 19.99%)	−− (decreases of 15 to 29%)	− (Decreases in the levels of Aβ of 5 to 14%)	0 (changes of 4% or less in either direction)	−− (decreases of 15 to 29%)	−−− (decreases of 30% or more)	−−− (decreases of 30% or more)	++ (increases of 15 to 29%)	+ (increases in the levels of Aβ (relative to vehicle treated control) of 5 to 14%)	+ (increases in the levels of Aβ (relative to vehicle treated control) of 5 to 14%)	− (Decreases in the levels of Aβ of 5 to 14%)	−− (decreases of 15 to 29%)	−− (decreases of 15 to 29%)	−−− (decreases of 30% or more)	−− (decreases of 15 to 29%)	−−− (decreases of 30% or more)	−− (decreases of 15 to 29%)	Plasma Abeta40 ([2]; 100 mg/kg daily, 8 wks): − (Decreases in the levels of Aβ of 5 to 14%); Plasma Abeta42 ([2]; 100 mg/kg daily, 8 wks): − (Decreases in the levels of Aβ of 5 to 14%); Brain Abeta40 insoluble ([2]; 100 mg/kg daily, 16 wks): + (increases in the levels of Aβ (relative to vehicle treated control) of 5 to 14%); Brain Abeta40 soluble ([2]; 100 mg/kg daily, 16 wks): ++ (increases of 15 to 29%); Brain Abeta42 insoluble ([2]; 100 mg/kg daily, 16 wks): ++ (increases of 15 to 29%); Brain Abeta42 soluble ([2]; 100 mg/kg daily, 16 wks): + (increases in the levels of Aβ (relative to vehicle treated control) of 5 to 14%); Plasma Abeta40 ([2]; 100 mg/kg daily, 16 wks): − (Decreases in the levels of Aβ of 5 to 14%); Plasma Abeta42 ([2]; 100 mg/kg daily, 16 wks): − (Decreases in the levels of Aβ of 5 to 14%); brain and plasma levels of Aβ ([2]; at 8 weeks): dramatic decrease; plasma levels of Aβ ([2]; at 16 weeks): dramatic decrease
